From US10597388B2, “Pyridazinone herbicides” (FMC CORPORATION, priority 2014, dated 2020)

Key:
Experiment in all cases: Test D controlled growth environment herbicide test, pre- and postemergence
Type in all cases: in vivo
[1] = tested on: barley, spring (spring barley, Hordeum vulgare)
How it was run: (§1)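 Species sown in silt loam and sprayed preemergence, or grown in peat-based medium to 2–18 cm (1- to 4-leaf stage) and sprayed postemergence, with compounds in non-phytotoxic solvent plus surfactant. Visual injury scored versus controls after 14–21 d in a controlled environment, 0 (no effect) to 100 (complete control).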

[2] = tested on: barley, winter (winter barley, Hordeum vulgare)
How it was run: as §1

[3] = tested on: bluegrass (annual bluegrass, Poa annua)
How it was run: as §1

[4] = tested on: buckwheat, wild (wild buckwheat, Polygonum convolvulus)
How it was run: as §1

[5] = tested on: chamomile (scentless chamomile, Matricaria inodora)
How it was run: as §1

[6] = tested on: field poppy (Papaver rhoeas)
How it was run: as §1

[7] = tested on: galium (catchweed bedstraw, Galium aparine)
How it was run: as §1

[8] = tested on: mustard, wild (wild mustard, Sinapis arvensis)
How it was run: as §1

[9] = tested on: oat, wild (wild oat, Avena fatua)
How it was run: as §1

[10] = tested on: oilseed rape (Brassica napus)
How it was run: as §1

[11] = tested on: pigweed (Amaranthus retroflexus)
How it was run: as §1

[12] = tested on: radish, wild (wild radish, Raphanus raphanistrum)
How it was run: as §1

[13] = tested on: speedwell (bird's-eye speedwell, Veronica persica)
How it was run: as §1

[14] = Postemergence, 31 g ai/ha, scale 0 to 100 (0 no effect, 100 complete control)
[15] = Postemergence, 125 g ai/ha, visual rating on scale 0 (no effect) to 100 (complete control), 14 to 21 d
[16] = Postemergence, 250 g ai/ha, scale 0 to 100 (0 no effect, 100 complete control)
[17] = Preemergence, 62 g ai/ha, scale 0 to 100 (0 no effect, 100 complete control)
[18] = Preemergence, 125 g ai/ha, scale 0 to 100 (0 no effect, 100 complete control)
[19] = Preemergence, 250 g ai/ha, scale 0 to 100 (0 no effect, 100 complete control)
[20] = postemergence, 62 g ai/ha, scale 0 to 100, 0 no effect, 100 complete control

C#CCOC(=O)Oc1c(C)nn(C)c(=O)c1-c1c(C)sc2ccc(C)cc12 [Compound 87]
5: Plant response rating, Barley, Spring [1, 16] | Plant response rating, Barley, Spring [1, 19] | Plant response rating, Barley, Winter [2, 15] | Plant response rating, Barley, Winter [2, 16]
100: Plant response rating, Buckwheat, Wild [4, 15] | Plant response rating, Buckwheat, Wild [4, 16] | Plant response rating, Buckwheat, Wild [4, 20] | Plant response rating, Chamomile [5, 15] | Plant response rating, Chamomile [5, 16] | Plant response rating, Chamomile [5, 18] | Plant response rating, Chamomile [5, 19] | Plant response rating, Chamomile [5, 20] | Plant response rating, Field Poppy [6, 16] | Plant response rating (scale of 0 to 100), Field Poppy ([6]; Preemergence, 31 g ai/ha) | Plant response rating (scale of 0 to 100), Field Poppy ([6]; Preemergence, 62 g ai/ha) | Plant response rating, Field Poppy [6, 18] | Plant response rating, Field Poppy [6, 19] | Plant response rating, Galium [7, 15] | Plant response rating, Galium [7, 16] | Plant response rating, Galium [7, 20] | Plant response rating, Oat, Wild [9, 16] | Plant response rating, Pigweed [11, 15] | Plant response rating, Pigweed [11, 16] | Plant response rating (scale of 0 to 100), Pigweed ([11]; Preemergence, 62 g ai/ha) | Plant response rating, Pigweed [11, 18] | Plant response rating, Pigweed [11, 19] | Plant response rating, Pigweed [11, 20] | Plant response rating, Speedwell [13, 19]
98: Plant response rating, Oat, Wild [9, 15]
45: Plant response rating, Bluegrass [3, 15] | Plant response rating, Bluegrass [3, 16] | Plant response rating, Bluegrass [3, 18] | Plant response rating, Oilseed Rape [10, 19] | Plant response rating (scale of 0 to 100), Radish, Wild ([12]; Preemergence, 31 g ai/ha)
80: Plant response rating, Galium [7, 19] | Plant response rating (scale of 0 to 100), Oat, Wild ([9]; Preemergence, 31 g ai/ha) | Plant response rating, Speedwell [13, 16] | Plant response rating (scale of 0 to 100), Speedwell ([13]; Preemergence, 31 g ai/ha)
25: Plant response rating, Barley, Winter [2, 19] | Bluegrass plant response rating [3, 14] | Plant response rating (scale of 0 to 100), Bluegrass ([3]; Preemergence, 31 g ai/ha) | Plant response rating, Bluegrass [3, 20] | Plant response rating, Mustard, Wild [8, 15] | Plant response rating, Mustard, Wild [8, 19]
15: Plant response rating (scale of 0 to 100), Galium ([7]; Preemergence, 31 g ai/ha) | Oilseed Rape plant response rating [10, 14] | Plant response rating (scale of 0 to 100), Oilseed Rape ([10]; Preemergence, 31 g ai/ha) | Radish, Wild plant response rating [12, 14]
75: Plant response rating, Oilseed Rape [10, 16] | Plant response rating, Radish, Wild [12, 18] | Plant response rating, Speedwell [13, 15] | Plant response rating, Speedwell [13, 20]
65: Plant response rating, Oilseed Rape [10, 15] | Plant response rating (scale of 0 to 100), Radish, Wild ([12]; Preemergence, 62 g ai/ha)
0: Barley, Spring plant response rating [1, 14] | Plant response rating, Barley, Spring [1, 15] | Plant response rating (scale of 0 to 100), Barley, Spring ([1]; Preemergence, 31 g ai/ha) | Plant response rating, Barley, Spring [1, 17] | Plant response rating, Barley, Spring [1, 18] | Plant response rating, Barley, Spring [1, 20] | Barley, Winter plant response rating [2, 14] | Plant response rating (scale of 0 to 100), Barley, Winter ([2]; Preemergence, 31 g ai/ha) | Plant response rating, Barley, Winter [2, 17] | Plant response rating, Barley, Winter [2, 20] | Plant response rating (scale of 0 to 100), Buckwheat, Wild ([4]; Preemergence, 31 g ai/ha) | Plant response rating, Buckwheat, Wild [4, 17] | Plant response rating, Buckwheat, Wild [4, 18] | Plant response rating (scale of 0 to 100), Mustard, Wild ([8]; Preemergence, 31 g ai/ha) | Plant response rating (scale of 0 to 100), Mustard, Wild ([8]; Preemergence, 62 g ai/ha) | Plant response rating, Mustard, Wild [8, 18]
70: Plant response rating, Bluegrass [3, 19] | Field Poppy plant response rating [6, 14] | Speedwell plant response rating [13, 14]
30: Plant response rating (scale of 0 to 100), Oilseed Rape ([10]; Preemergence, 62 g ai/ha) | Plant response rating, Oilseed Rape [10, 18] | Plant response rating, Radish, Wild [12, 15]
10: Plant response rating, Barley, Winter [2, 18] | Mustard, Wild plant response rating [8, 14]
50: Plant response rating (scale of 0 to 100), Pigweed ([11]; Preemergence, 31 g ai/ha)
35: Plant response rating, Bluegrass [3, 17] | Plant response rating, Mustard, Wild [8, 20]
85: Buckwheat, Wild plant response rating [4, 14] | Plant response rating, Field Poppy [6, 15] | Plant response rating, Field Poppy [6, 20] | Galium plant response rating [7, 14] | Oat, Wild plant response rating [9, 14] | Plant response rating (scale of 0 to 100), Oat, Wild ([9]; Preemergence, 62 g ai/ha) | Plant response rating (scale of 0 to 100), Speedwell ([13]; Preemergence, 62 g ai/ha)
60: Plant response rating, Buckwheat, Wild [4, 19] | Plant response rating, Galium [7, 18] | Plant response rating, Mustard, Wild [8, 16] | Plant response rating, Radish, Wild [12, 16]
40: Plant response rating (scale of 0 to 100), Galium ([7]; Preemergence, 62 g ai/ha) | Plant response rating, Oilseed Rape [10, 20]
20: Plant response rating, Radish, Wild [12, 20]
90: Chamomile plant response rating [5, 14] | Plant response rating, Oat, Wild [9, 18] | Plant response rating, Speedwell [13, 18]
95: Plant response rating (scale of 0 to 100), Chamomile ([5]; Preemergence, 31 g ai/ha) | Plant response rating (scale of 0 to 100), Chamomile ([5]; Preemergence, 62 g ai/ha) | Plant response rating, Oat, Wild [9, 19] | Plant response rating, Oat, Wild [9, 20] | Pigweed plant response rating [11, 14] | Plant response rating, Radish, Wild [12, 19]
